Source: PubChem BioAssay AID1259407 (Chemical Carcinogenesis Research Information System (CCRIS), 2018)
The source made the active and inactive calls. How the calls were made is not given here.

Test system: CCRIS mutagenicity, Ames/micronucleus/aberration tests
Experiment: CCRIS mutagenicity studies

O=C(O)CN(CC(=O)O)CC(=O)O
mutagenic call (Test System: AMES SALMONELLA TYPHIMURIUM, Strain/Indicator: TA1535, Metabolic Activation: NONE, Method: STANDARD PLATE): inactive; negative
mutagenic call (Test System: AMES SALMONELLA TYPHIMURIUM, Strain/Indicator: TA1535, Metabolic Activation: NONE, Method: SUSPENSION/PLATE): inactive; negative
mutagenic call (Test System: AMES SALMONELLA TYPHIMURIUM, Strain/Indicator: TA1535, Metabolic Activation: RAT, LIVER, S-9, AROCLOR 1254 (10 OR 30%), Method: PREINCUBATION): inactive; negative
mutagenic call (Test System: AMES SALMONELLA TYPHIMURIUM, Strain/Indicator: TA1535, Metabolic Activation: RAT, LIVER, S-9, AROCLOR 1254, Method: STANDARD PLATE): inactive; negative
mutagenic call (Test System: AMES SALMONELLA TYPHIMURIUM, Strain/Indicator: TA1535, Metabolic Activation: RAT, LIVER, S-9, Method: STANDARD PLATE): inactive; negative
mutagenic call (Test System: AMES SALMONELLA TYPHIMURIUM, Strain/Indicator: TA1537, Metabolic Activation: HAMSTER, LIVER, S-9, AROCLOR 1254 (10 OR 30%), Method: PREINCUBATION): inactive; negative
mutagenic call (Test System: AMES SALMONELLA TYPHIMURIUM, Strain/Indicator: TA1537, Metabolic Activation: HAMSTER, LIVER, S-9, AROCLOR 1254, Method: STANDARD PLATE): inactive; negative
mutagenic call (Test System: AMES SALMONELLA TYPHIMURIUM, Strain/Indicator: TA1537, Metabolic Activation: HAMSTER, LIVER, S-9, Method: STANDARD PLATE): inactive; negative
mutagenic call (Test System: AMES SALMONELLA TYPHIMURIUM, Strain/Indicator: TA1537, Metabolic Activation: MOUSE, LIVER, S-9, AROCLOR 1254, Method: STANDARD PLATE): inactive; negative
mutagenic call (Test System: AMES SALMONELLA TYPHIMURIUM, Strain/Indicator: TA1537, Metabolic Activation: MOUSE, LIVER, S-9, Method: STANDARD PLATE): inactive; negative
mutagenic call (Test System: AMES SALMONELLA TYPHIMURIUM, Strain/Indicator: TA1537, Metabolic Activation: NONE, Method: PREINCUBATION): inactive; negative
mutagenic call (Test System: AMES SALMONELLA TYPHIMURIUM, Strain/Indicator: TA1537, Metabolic Activation: NONE, Method: STANDARD PLATE): inactive; negative
mutagenic call (Test System: AMES SALMONELLA TYPHIMURIUM, Strain/Indicator: TA1537, Metabolic Activation: NONE, Method: SUSPENSION/PLATE): inactive; negative
mutagenic call (Test System: AMES SALMONELLA TYPHIMURIUM, Strain/Indicator: TA1537, Metabolic Activation: RAT, LIVER, S-9, AROCLOR 1254 (10 OR 30%), Method: PREINCUBATION): inactive; negative
mutagenic call (Test System: AMES SALMONELLA TYPHIMURIUM, Strain/Indicator: TA1537, Metabolic Activation: RAT, LIVER, S-9, AROCLOR 1254, Method: STANDARD PLATE): inactive; negative
mutagenic call (Test System: AMES SALMONELLA TYPHIMURIUM, Strain/Indicator: TA1537, Metabolic Activation: RAT, LIVER, S-9, Method: STANDARD PLATE): inactive; negative
mutagenic call (Test System: AMES SALMONELLA TYPHIMURIUM, Strain/Indicator: TA1538, Metabolic Activation: HAMSTER, LIVER, S-9, AROCLOR 1254, Method: STANDARD PLATE): inactive; negative
mutagenic call (Test System: AMES SALMONELLA TYPHIMURIUM, Strain/Indicator: TA1538, Metabolic Activation: HAMSTER, LIVER, S-9, Method: STANDARD PLATE): inactive; negative
mutagenic call (Test System: AMES SALMONELLA TYPHIMURIUM, Strain/Indicator: TA1538, Metabolic Activation: MOUSE, LIVER, S-9, AROCLOR 1254, Method: STANDARD PLATE): inactive; negative
mutagenic call (Test System: AMES SALMONELLA TYPHIMURIUM, Strain/Indicator: TA1538, Metabolic Activation: MOUSE, LIVER, S-9, Method: STANDARD PLATE): inactive; negative
mutagenic call (Test System: AMES SALMONELLA TYPHIMURIUM, Strain/Indicator: TA1538, Metabolic Activation: NONE, Method: STANDARD PLATE): inactive; negative
mutagenic call (Test System: AMES SALMONELLA TYPHIMURIUM, Strain/Indicator: TA1538, Metabolic Activation: RAT, LIVER, S-9, AROCLOR 1254, Method: STANDARD PLATE): inactive; negative
mutagenic call (Test System: AMES SALMONELLA TYPHIMURIUM, Strain/Indicator: TA1538, Metabolic Activation: RAT, LIVER, S-9, Method: STANDARD PLATE): inactive; negative
mutagenic call (Test System: Ames Salmonella typhimurium, Strain/Indicator: TA98, Metabolic Activation: None, Method: Plate incorporation): inactive; negative
mutagenic call (Test System: Ames Salmonella typhimurium, Strain/Indicator: TA98, Metabolic Activation: Rat, Kidney, S9, Aroclor 1254 with NADP, Method: Preincubation): inactive; negative
mutagenic call (Test System: Ames Salmonella typhimurium, Strain/Indicator: TA98, Metabolic Activation: Rat, Kidney, S9, Aroclor 1254 with arachidonic acid instead of NADP, Method: Preincubation): inactive; negative
mutagenic call (Test System: Ames Salmonella typhimurium, Strain/Indicator: TA98, Metabolic Activation: Rat, Liver, S9, Aroclor 1254, Method: Preincubation): inactive; negative
mutagenic call (Test System: Ames Salmonella typhimurium, Strain/Indicator: TA100, Metabolic Activation: None, Method: Plate incorporation): inactive; negative
mutagenic call (Test System: Ames Salmonella typhimurium, Strain/Indicator: TA100, Metabolic Activation: Rat, Kidney, S9, Aroclor 1254 with NADP, Method: Preincubation): inactive; negative
mutagenic call (Test System: Ames Salmonella typhimurium, Strain/Indicator: TA100, Metabolic Activation: Rat, Kidney, S9, Aroclor 1254 with arachidonic acid instead of NADP, Method: Preincubation): inactive; negative
mutagenic call (Test System: Ames Salmonella typhimurium, Strain/Indicator: TA100, Metabolic Activation: Rat, Liver, S9, Aroclor 1254, Method: Preincubation): inactive; negative
mutagenic call (Test System: Ames Salmonella typhimurium, Strain/Indicator: TA102, Metabolic Activation: None, Method: Plate incorporation): inactive; negative. significant decrease at three highest doses.
mutagenic call (Test System: Ames Salmonella typhimurium, Strain/Indicator: TA102, Metabolic Activation: Rat, Kidney, S9, Aroclor 1254 with NADP, Method: Preincubation): inactive; negative
mutagenic call (Test System: Ames Salmonella typhimurium, Strain/Indicator: TA102, Metabolic Activation: Rat, Kidney, S9, Aroclor 1254 with arachidonic acid instead of NADP, Method: Preincubation): inactive; negative
mutagenic call (Test System: Ames Salmonella typhimurium, Strain/Indicator: TA102, Metabolic Activation: Rat, Liver, S9, Aroclor 1254, Method: Preincubation): inactive; negative
mutagenic call (Test System: Ames Salmonella typhimurium, Strain/Indicator: TA1537, Metabolic Activation: None, Method: Plate incorporation): inactive; negative
mutagenic call (Test System: Ames Salmonella typhimurium, Strain/Indicator: TA1537, Metabolic Activation: Rat, Kidney, S9, Aroclor 1254 with NADP, Method: Preincubation): inactive; negative
mutagenic call (Test System: Ames Salmonella typhimurium, Strain/Indicator: TA1537, Metabolic Activation: Rat, Kidney, S9, Aroclor 1254 with arachidonic acid instead of NADP, Method: Preincubation): inactive; negative
mutagenic call (Test System: Ames Salmonella typhimurium, Strain/Indicator: TA1537, Metabolic Activation: Rat, Liver, S9, Aroclor 1254, Method: Preincubation): inactive; negative
mutagenic call (Test System: E. COLI, Strain/Indicator: WP2 UVRA, Metabolic Activation: HAMSTER, LIVER, S-9, AROCLOR 1254, Method: STANDARD PLATE): inactive; negative
mutagenic call (Test System: E. COLI, Strain/Indicator: WP2 UVRA, Metabolic Activation: HAMSTER, LIVER, S-9, Method: STANDARD PLATE): inactive; negative
mutagenic call (Test System: E. COLI, Strain/Indicator: WP2 UVRA, Metabolic Activation: MOUSE, LIVER, S-9, AROCLOR 1254, Method: STANDARD PLATE): inactive; negative
mutagenic call (Test System: E. COLI, Strain/Indicator: WP2 UVRA, Metabolic Activation: MOUSE, LIVER, S-9, Method: STANDARD PLATE): inactive; negative
mutagenic call (Test System: E. COLI, Strain/Indicator: WP2 UVRA, Metabolic Activation: NONE, Method: STANDARD PLATE): inactive; negative
mutagenic call (Test System: E. COLI, Strain/Indicator: WP2 UVRA, Metabolic Activation: RAT, LIVER, S-9, AROCLOR 1254, Method: STANDARD PLATE): inactive; negative
mutagenic call (Test System: E. COLI, Strain/Indicator: WP2 UVRA, Metabolic Activation: RAT, LIVER, S-9, Method: STANDARD PLATE): inactive; negative
mutagenic call (Test System: MOUSE LYMPHOMA, Strain/Indicator: L5178Y (TK+/TK-), Metabolic Activation: NONE, Method: SUSPENSION/PLATE): inactive; negative
mutagenic call (Test System: MOUSE LYMPHOMA, Strain/Indicator: L5178Y (TK+/TK-), Metabolic Activation: RAT, LIVER, S-9, AROCLOR 1254, Method: SUSPENSION/PLATE): inactive; negative
mutagenic call (Test System: MOUSE LYMPHOMA, Strain/Indicator: L5178Y (TK+/TK-), Metabolic Activation: RAT, LIVER, S-9, Method: SUSPENSION/PLATE): inactive; negative
mutagenic call (Test System: Mouse lymphoma, Strain/Indicator: L5178Y (tk+/tk-), Metabolic Activation: None, Method: Microwell): active; positive. small colonies only.
